This is an account of results in BindingDB's records for patent US10087191 (Jiangsu Hengrui Medicine, 2018).

Structures are written as SMILES.

The IC50 is the concentration that gives 50% inhibition. Lower therefore signals greater potency in that assay.

The target of this test is T1, Estrogen receptor (Homo sapiens, UniProt P03372).
T1 sequence (P03372 whole entry): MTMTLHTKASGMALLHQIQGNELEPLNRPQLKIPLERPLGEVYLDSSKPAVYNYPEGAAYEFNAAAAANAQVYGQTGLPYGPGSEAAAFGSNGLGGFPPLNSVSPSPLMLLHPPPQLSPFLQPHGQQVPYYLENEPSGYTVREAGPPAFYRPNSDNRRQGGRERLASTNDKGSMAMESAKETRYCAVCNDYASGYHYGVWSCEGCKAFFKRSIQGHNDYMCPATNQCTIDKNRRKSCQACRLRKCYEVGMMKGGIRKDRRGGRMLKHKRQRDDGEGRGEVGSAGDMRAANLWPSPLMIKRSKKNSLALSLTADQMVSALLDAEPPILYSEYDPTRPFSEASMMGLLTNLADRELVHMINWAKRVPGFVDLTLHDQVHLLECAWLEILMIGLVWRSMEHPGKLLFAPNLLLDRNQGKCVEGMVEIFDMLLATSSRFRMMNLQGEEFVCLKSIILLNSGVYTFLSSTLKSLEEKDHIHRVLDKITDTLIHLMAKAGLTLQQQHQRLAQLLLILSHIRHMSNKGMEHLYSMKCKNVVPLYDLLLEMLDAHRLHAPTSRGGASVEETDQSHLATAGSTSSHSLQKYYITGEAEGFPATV
In words: Biological Assay.
On to `CC1Cc2cc3c(cc2C(c2c(F)cc(/C=C/C(=O)O)cc2F)N1CC(C)(C)F)OCO3` (stereo not given) [US10087191, Example 1], for which the IC50 came out at 0.77 nM.

On to `CC1Cc2c(oc3ccccc23)C(c2c(F)cc(/C=C/C(=O)O)cc2F)N1CC(C)(C)F` (stereo not given) [US10087191, Example 4], for which 0.73 nM corresponded to half-maximal inhibition (IC50).

Compound `CC1Cc2sc3ccccc3c2C(c2c(F)cc(/C=C/C(=O)O)cc2F)N1CC(C)(C)F` (stereo not given) [US10087191, Example 6] showed an IC50 of 4.9 nM. Against the preceding compound, the IC50 is about 6.7-fold higher.

As to `CC1Cc2cc(-c3cnn(C(F)F)c3)ccc2C(c2c(F)cc(/C=C/C(=O)O)cc2F)N1CC(C)(C)F` (stereo not given) [US10087191, Example 13], the IC50 was determined as 2.11 nM.

In the case of `CC1Cc2cc(-c3cnn(C)c3)c(F)cc2C(c2c(F)cc(/C=C/C(=O)O)cc2F)N1CC(C)(C)F` (stereo not given) [US10087191, Example 16], the IC50 worked out at 1.36 nM.

Turning to `CCn1cc(-c2cc3c(cc2F)C(c2c(F)cc(/C=C/C(=O)O)cc2F)N(CC(C)(C)F)C(C)C3)cn1` (stereo not given) [US10087191, Example 17], half-maximal inhibition (IC50) was put at 1.17 nM.

Take `CCCn1cc(-c2ccc3c(c2)CC(C)N(CC(C)(C)F)C3c2c(F)cc(/C=C/C(=O)O)cc2F)cn1` (stereo not given) [US10087191, Example 18]: the IC50 was 1.52 nM.

For `CC1Cc2cc(-c3cnn(CCO)c3)ccc2C(c2c(F)cc(/C=C/C(=O)O)cc2F)N1CC(C)(C)F` (stereo not given) [US10087191, Example 23], the IC50 was determined as 27.3 nM.

In turn, `CC1Cc2cc(-c3ccc(N)nc3)ccc2C(c2c(F)cc(/C=C/C(=O)O)cc2F)N1CC(C)(C)F` (stereo not given) [US10087191, Example 27] displayed an IC50 of 19.8 nM.

Compound `CC1Cc2cc(-c3cccnc3)ccc2C(c2c(F)cc(/C=C/C(=O)O)cc2F)N1CC(C)(C)F` (stereo not given) [US10087191, Example 28] had an IC50 of 2.28 nM. Against the preceding compound, the IC50 is about 8.7-fold lower.

Regarding `CCc1nc(-c2ccc3c(c2)CC(C)N(CC(C)(C)F)C3c2c(F)cc(/C=C/C(=O)O)cc2F)no1` (stereo not given) [US10087191, Example 46], the IC50 turned out to be 11.4 nM.

`Cc1ncc(-c2ccc3c(c2)CC(C)N(CC(C)(C)F)C3c2c(F)cc(/C=C/C(=O)O)cc2F)o1` (stereo not given) [US10087191, Example 49] registered an IC50 of 3.4 nM.

`CC1Cc2cc(-c3nnn(C)n3)ccc2C(c2c(F)cc(/C=C/C(=O)O)cc2F)N1CC(C)(C)F` (stereo not given) [US10087191, Example 51] showed an IC50 of 7.43 nM.

Compound `CC1Cc2cc(-c3ccc(-c4cnn(C)c4)nc3)ccc2C(c2c(F)cc(/C=C/C(=O)O)cc2F)N1CC(C)(C)F` (stereo not given) [US10087191, Example 61] returned an IC50 of 17.4 nM.

`CC1Cc2c(ccc3[nH]ncc23)C(c2c(F)cc(/C=C/C(=O)O)cc2F)N1CC(C)(C)F` (stereo not given) [US10087191, Example 70] had a half-inhibitory concentration (IC50) of 0.77 nM.

`CC1Cc2c(oc3cccc(F)c23)C(c2c(F)cc(/C=C/C(=O)O)cc2F)N1CC(C)(C)F` (stereo not given) [US10087191, Example 73] came in with an IC50 of 0.45 nM.

The compound `CCn1cc(-c2ccc3oc4c(c3c2)CC(C)N(CC(C)(C)F)C4c2c(F)cc(/C=C/C(=O)O)cc2F)cn1` (stereo not given) [US10087191, Example 76] gave an IC50 of 1.39 nM.

Take `CC1Cc2c(oc3c(F)cccc23)C(c2c(F)cc(/C=C/C(=O)O)cc2F)N1CC(C)(C)F` (stereo not given) [US10087191, Example 84]: the IC50 turned out to be 2.97 nM.

With `CC1Cc2c(oc3ccc(Br)cc23)C(c2c(F)cc(/C=C/C(=O)O)cc2F)N1CC(C)(C)F` (stereo not given) [US10087191, Example 87], the IC50 was found to be 15 nM.

Turning to `CC(C)CN1C(C)Cc2c(ccc3[nH]ncc23)C1c1c(F)cc(/C=C/C(=O)O)cc1F` (stereo not given) [US10087191, Example 92], the half-inhibitory concentration (IC50) came out at 0.43 nM.
